Results on seven compounds are retold here after PubChem BioAssay AID624425 (The Scripps Research Institute Molecular Screening Center, 2012).

SMILES strings stand for the structures.

This experiment has as its target Serine/threonine-protein phosphatase 5 (Homo sapiens) (UniProt P53041). Briefly: PP5 inhibitor potency, OMFP substrate, dose response, biochemical, fluorescence, round 5, powder samples (AID 624425). Conditions: purified PP5c, OMFP dephosphorylation.

Serine/threonine-protein phosphatase 5 (Homo sapiens), sequence (P53041 whole entry, looked up): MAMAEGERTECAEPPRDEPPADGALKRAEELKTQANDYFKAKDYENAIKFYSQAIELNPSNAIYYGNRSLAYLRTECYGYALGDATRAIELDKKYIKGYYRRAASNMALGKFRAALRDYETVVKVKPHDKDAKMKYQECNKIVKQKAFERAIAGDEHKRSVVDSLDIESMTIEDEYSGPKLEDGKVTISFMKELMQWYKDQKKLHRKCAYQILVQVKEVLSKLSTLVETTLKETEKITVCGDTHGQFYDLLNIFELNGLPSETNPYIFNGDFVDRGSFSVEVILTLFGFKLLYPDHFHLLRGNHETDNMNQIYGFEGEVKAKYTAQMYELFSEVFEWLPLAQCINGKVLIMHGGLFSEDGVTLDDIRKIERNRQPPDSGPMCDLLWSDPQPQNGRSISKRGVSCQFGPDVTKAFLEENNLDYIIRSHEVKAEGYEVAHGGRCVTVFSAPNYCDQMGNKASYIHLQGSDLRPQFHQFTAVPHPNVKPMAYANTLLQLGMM

`O=C(O)c1n[nH]nc1-c1ccccc1O`: the IC50 (commonly the point on the concentration scale where inhibition reaches its midpoint) is 7.74 µM. For `O=C(O)c1n[nH]nc1-c1ccc(F)cc1` the value was 24.1 µM; for `O=C(O)c1n[nH]nc1-c1cccc(F)c1`, 17.8 µM. Take `O=C(O)c1n[nH]nc1-c1ccccc1F`: the 50% inhibitory concentration (IC50) was 7.75 µM. With `COc1ccccc1-c1n[nH]nc1C(=O)O`, the IC50 is 6 µM. The figure for `COc1ccc(-c2n[nH]nc2C(=O)O)cc1` is 23.1 µM. The figure for `COc1cccc(-c2n[nH]nc2C(=O)O)c1` is 10.9 µM.
